Experimental data reported in patent publication US9617256B2 (priority 2007, dated 2017).
Values after ≈ are worked out from the molar mass of the structure shown.

What was measured:
[1] = test system: AECO063 (ATCC25922 bearing an acrAB mutation); assay: microbe, parasite or virus in culture; type: cell-based, E. coli; conditions: for MIC: Escherichia coli, ATCC25922, read-out: MIC AECO063
How it was run: (§1)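 Growth inhibition was scored by CLSI broth microdilution using cation-adjusted Mueller-Hinton broth and a final inoculum between 3×10^5 and 7×10^5 CFU/mL, incubated 18-24 hours at 35° C.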

[2] = test system: APAE006 (strain of P. aeruginosa in which all efflux pumps are inactivated); assay: microbe, parasite or virus in culture; type: cell-based; conditions: for MIC: Pseudomonas aeruginosa, read-out: MIC APAE006, P. aeruginosa, all efflux pumps inactivated
How it was run: (§2)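 Minimum inhibitory concentrations followed CLSI broth microdilution guidelines: cation-adjusted Mueller-Hinton broth, 2-fold serial drug dilutions, final inoculum 3×10^5–7×10^5 CFU/mL, ambient air at 35° C. for 18-24 hours. Quality-control strains and levofloxacin monitored performance.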

AECO001 HSA AGP = assay: MIC broth microdilution, AECO001 HSA AGP; type: cell-based, E. coli; conditions: for MIC: Escherichia coli
Protocol: Bacterial isolates were cultivated from −70° C. frozen stocks by overnight passages at 35° C. in ambient air on Mueller-Hinton agar (Beckton Dickinson, Franklin Lakes, N.J.). Clinical isolates tested were obtained from various geographically diverse hospitals in the US and abroad (Focus Diagnostics, Herndon, Va. and JMI, North Liberty, Iowa). Quality control strains were from the American Type Culture Collection (ATCC; Rockville, Md.). Additional primary panel strains were generated using standard molecular biology techniques.
Minimum Inhibitory Concentrations (MICs) were determined by the broth microdilution method in accordance with the Clinical and Laboratory Standards Institute (CLSI) guidelines. In brief, organism suspensions were adjusted to a 0.5 McFarland standard to yield a final inoculum between 3×10^5 and 7×10^5 colony-forming units (CFU)/mL. Drug dilutions and inocula were made in sterile, cation adjusted Mueller-Hinton Broth (Beckton Dickinson). An inoculum volume of 100 μL was added to wells containing 100 μL of broth with 2-fold serial dilutions of drug. All inoculated microdilution trays were incubated in ambient air at 35° C. for 18-24 hours. […] Performance of the assay was monitored by the use of laboratory quality-control strains and levofloxacin, a compound with a defined MIC spectrum, in accordance with CLSI guidelines.
*AECO001 is ATCC25922, AECO063 is ATCC25922 bearing an acrAB mutation, APAE001 is ATCC27853, APAE006 is a strain of P. aeruginosa in which all efflux pumps are inactivated, APAE006+PMBN indicates MICs with the indicated strain in the presence of 8 micrograms per milliliter of polymyxin B nonapeptide, AABA1060 is a clinical isolate of Acinetobacter baumannii, ASAU001 is a laboratory strain of S. aureus (ATCC29213).

[3] = test system: APAE006 in the presence of 8 micrograms per milliliter of polymyxin B nonapeptide; type: cell-based, P. aeruginosa; conditions: in the presence of 8 micrograms per milliliter of polymyxin B nonapeptide
How it was run: as §2

AECO001 (ATCC25922) = assay: MIC broth microdilution, AECO001; type: cell-based, E. coli; conditions: for MIC: Escherichia coli, ATCC25922, read-out: MIC AECO001
How it was run: as §1

[4] = test system: AABA1060 (clinical isolate of Acinetobacter baumannii); assay: MIC broth microdilution, AABA1060; type: cell-based; conditions: for MIC: Acinetobacter baumannii, read-out: MIC AABA1060
How it was run: as §1

[5] = test system: ASAU001 (laboratory strain of S. aureus, ATCC29213); assay: MIC broth microdilution, ASAU001; type: cell-based; conditions: for MIC: Staphylococcus aureus, ATCC29213, read-out: MIC ASAU001
How it was run: as §1

APAE001 (ATCC27853) = assay: MIC broth microdilution, APAE001; type: cell-based, P. aeruginosa; conditions: for MIC: Pseudomonas aeruginosa, ATCC27853, read-out: MIC APAE001, APAE001 is ATCC27853
How it was run: as §1

Row | Compound | MIC AECO063 ([1]; ATCC25922 bearing an acrAB mutation) | MIC APAE006 ([2]; P. aeruginosa, all efflux pumps inactivated) | MIC AECO001 HSA AGP (AECO001 HSA AGP) | MIC APAE006 + PMBN [3] | MIC AECO001 (AECO001 (ATCC25922); AECO001 is ATCC25922) | MIC AABA1060 ([4]; clinical isolate of Acinetobacter baumannii) | MIC ASAU001 ([5]; S. aureus ATCC29213) | MIC APAE001 (APAE001 (ATCC27853); APAE001 is ATCC27853) | MIC [1] [µg/mL] | MIC [2] [µg/mL] | MIC (AECO001 HSA AGP) [µg/mL] | MIC (AECO001 (ATCC25922)) [µg/mL] | MIC [4] [µg/mL] | MIC [5] [µg/mL] | MIC (APAE001 (ATCC27853)) [µg/mL]
1 | 3-Amino-N-hydroxy-3-methyl-2-[3-(4-morpholin-4-ylmethyl-phenyl)-propynoylamino]-butyramide [Example 129-1] | A (MIC's of 2.0 μg/mL or less = A) | A (MIC's of 2.0 μg/mL or less = A) | B (MIC's of greater than 2.0 μg/mL to 16.0 μg/mL = B) | A (MIC's of 2.0 μg/mL or less = A) | A (MIC's of 2.0 μg/mL or less = A) | B (MIC's of greater than 2.0 μg/mL to 16.0 μg/mL = B) | D (MIC's of greater than 64.0 μg/mL = D) | A (MIC's of 2.0 μg/mL or less = A) | – | – | – | – | – | – | –
2 | C[C@@H](N)[C@H](NC(=O)c1ccc(C#CC#Cc2cccc(F)c2)cc1)C(=O)NO [Example 82-5] | – | – | – | A (MIC's of 2.0 μg/mL or less = A) | – | – | – | – | < 2 | < 2 | 2 to 16 (≈ 5.27 to 42.2 µM) | < 2 | 2 to 16 (≈ 5.27 to 42.2 µM) | 2 to 16 (≈ 5.27 to 42.2 µM) | < 2
3 | C[C@@H](N)[C@H](NC(=O)c1ccc(C#CC#Cc2ccc(F)cc2)cc1)C(=O)NO [Example 82-12] | – | – | – | A (MIC's of 2.0 μg/mL or less = A) | – | – | – | – | < 2 | < 2 | 2 to 16 (≈ 5.27 to 42.2 µM) | < 2 | 2 to 16 (≈ 5.27 to 42.2 µM) | 16 to 64 (≈ 42.2 to 169 µM) | 2 to 16 (≈ 5.27 to 42.2 µM)
4 | C[C@@H](N)[C@H](NC(=O)c1ccc(C#Cc2ccc(CN3CCC(F)(F)C3)cc2)cc1)C(=O)NO [Example 118-3] | – | – | – | A (MIC's of 2.0 μg/mL or less = A) | – | – | – | – | < 2 | < 2 | 2 to 16 (≈ 4.38 to 35 µM) | < 2 | 2 to 16 (≈ 4.38 to 35 µM) | 16 to 64 (≈ 35 to 140 µM) | 2 to 16 (≈ 4.38 to 35 µM)
5 | O=C(CNC1CC1)NC[C@H](NC(=O)c1ccc(/C=C/C#Cc2ccc(CO)cc2)cc1)C(=O)NO [Example 113-11] | – | – | – | A (MIC's of 2.0 μg/mL or less = A) | – | – | – | – | < 2 | < 2 | 16 to 64 (≈ 33.6 to 134 µM) | < 2 | 16 to 64 (≈ 33.6 to 134 µM) | > 64 | 2 to 16 (≈ 4.2 to 33.6 µM)
6 | C[C@@H](N)[C@H](NC(=O)c1ccc(C#Cc2ccc(CS(C)(=O)=O)cc2)cc1)C(=O)NO [Example 120-2] | – | – | – | A (MIC's of 2.0 μg/mL or less = A) | – | – | – | – | < 2 | < 2 | 16 to 64 (≈ 37.3 to 149 µM) | 2 to 16 (≈ 4.66 to 37.3 µM) | 16 to 64 (≈ 37.3 to 149 µM) | 16 to 64 (≈ 37.3 to 149 µM) | 2 to 16 (≈ 4.66 to 37.3 µM)
7 | NC[C@H](NC(=O)c1ccc(/C=C/C#Cc2ccc(CNC3CC3)cc2)cc1)C(=O)NO [Example 113-1] | – | – | – | A (MIC's of 2.0 μg/mL or less = A) | – | – | – | – | < 2 | < 2 | 2 to 16 (≈ 4.78 to 38.2 µM) | < 2 | 16 to 64 (≈ 38.2 to 153 µM) | > 64 | 2 to 16 (≈ 4.78 to 38.2 µM)
8 | C[C@@H](NCC(=O)NC[C@H](NC(=O)c1ccc(C#C/C=C/c2ccccc2)cc1)C(=O)NO)c1ccccc1 [Example 105-4] | – | – | – | A (MIC's of 2.0 μg/mL or less = A) | – | – | – | – | < 2 | 2 to 16 (≈ 3.92 to 31.3 µM) | 2 to 16 (≈ 3.92 to 31.3 µM) | < 2 | 16 to 64 (≈ 31.3 to 125 µM) | 16 to 64 (≈ 31.3 to 125 µM) | 16 to 64 (≈ 31.3 to 125 µM)
9 | C[C@@H](N)[C@H](NC(=O)c1ccc(/C=C/C#Cc2ccccc2F)cc1)C(=O)NO [Example 114-3] | – | – | – | A (MIC's of 2.0 μg/mL or less = A) | – | – | – | – | < 2 | < 2 | 2 to 16 (≈ 5.24 to 41.9 µM) | < 2 | < 2 | 16 to 64 (≈ 41.9 to 168 µM) | < 2
10 | C[C@@H](N)[C@H](NC(=O)c1ccc(/C=C/C#Cc2cccc(Cl)c2)cc1)C(=O)NO [Example 114-4] | – | – | – | A (MIC's of 2.0 μg/mL or less = A) | – | – | – | – | < 2 | < 2 | 2 to 16 (≈ 5.03 to 40.2 µM) | < 2 | 2 to 16 (≈ 5.03 to 40.2 µM) | 2 to 16 (≈ 5.03 to 40.2 µM) | 2 to 16 (≈ 5.03 to 40.2 µM)
11 | O=C(N[C@H](C(=O)NO)C1CC1)c1ccc(C#Cc2ccc(CN3CCOCC3)cc2)cc1 [Example 68-6, N—((S)-cyclopropyl-hydroxycarbamoyl-methyl)-4-(4-morpholin-4-ylmethyl-phenylethynyl)-benzamide] | – | – | – | A (MIC's of 2.0 μg/mL or less = A) | – | – | – | – | < 2 | < 2 | 2 to 16 (≈ 4.61 to 36.9 µM) | < 2 | 16 to 64 (≈ 36.9 to 148 µM) | > 64 | 2 to 16 (≈ 4.61 to 36.9 µM)
12 | C[C@@H](N)[C@H](NC(=O)c1ccc(C#CC#Cc2ccccc2F)cc1)C(=O)NO [Example 82-7] | – | – | – | A (MIC's of 2.0 μg/mL or less = A) | – | – | – | – | < 2 | < 2 | 2 to 16 (≈ 5.27 to 42.2 µM) | < 2 | < 2 | 2 to 16 (≈ 5.27 to 42.2 µM) | < 2
13 | C[C@@H](O)[C@H](NC(=O)c1ccc(C2CCN(c3ccc(CN4CCOCC4)cc3)CC2)cc1)C(=O)NO [Example 41-5, N-((1S,2R)-2-Hydroxy-1-hydroxycarbamoyl-propyl)-4-[1-(4-morpholin-4-ylmethyl-phenyl)-piperidin-4-yl]-benzamide] | – | – | – | A (MIC's of 2.0 μg/mL or less = A) | – | – | – | – | 16 to 64 (≈ 32.2 to 129 µM) | < 2 | > 64 | > 64 | > 64 | > 64 | 16 to 64 (≈ 32.2 to 129 µM)
14 | CO[C@H](C)[C@H](NC(=O)c1ccc(C#C/C=C/c2ccc(CN3CCOCC3)cc2)cc1)C(=O)NO [Example 97-1, N-((1S,2R)-1-Hydroxycarbamoyl-2-methoxy-propyl)-4-[(E)-4-(4-morpholin-4-ylmethyl-phenyl)-but-3-en-1-ynyl]-benzamide] | – | – | – | A (MIC's of 2.0 μg/mL or less = A) | – | – | – | – | < 2 | < 2 | < 2 | < 2 | 2 to 16 (≈ 4.19 to 33.5 µM) | 16 to 64 (≈ 33.5 to 134 µM) | 2 to 16 (≈ 4.19 to 33.5 µM)
15 | O=C(N[C@H](C(=O)NO)c1cccs1)c1ccc(C#Cc2ccc(CN3CCOCC3)cc2)cc1 [Example 67-7] | – | – | – | A (MIC's of 2.0 μg/mL or less = A) | – | – | – | – | < 2 | < 2 | 2 to 16 (≈ 4.21 to 33.6 µM) | < 2 | 2 to 16 (≈ 4.21 to 33.6 µM) | > 64 | 2 to 16 (≈ 4.21 to 33.6 µM)
